From patent publication US9365604B2, “Oligomer-nucleoside phosphate conjugates” (NEKTAR THERAPEUTICS, priority 2007, dated 2016)
Read-outs that look alike come from different tables or passages of the source.

What was measured:
[1] = Bi-directional permeability in Caco-2 cells; conditions: human
Text: (§5) Bi-Directional Permeability of PEG-Floxuridine Conjugates in Caco-2 and MDCK Cells

[2] = system: Caco-2 cells; assay: Bi-directional permeability in Caco-2 cells
Text: as §5

[3] = system: PANC-1; conditions: Zajchowski et al. 2005; cited from earlier work
[4] = Bi-directional permeability in MDCK cells; conditions: dog
Text: as §5

[5] = system: MDCK cells; assay: Bi-directional permeability in MDCK cells
Text: as §5

[6] = system: DU145; assay: Sulforhodamine B (SRB) growth inhibition assay; type: cell-based, Human; conditions: Homo sapiens, DU-145, SRB assay, cells exposed for 24 h, read-out: GI50 values (μM) DU145
Experimental: (§1) The aim was to determine the GI50 values for PEG-floxuridine conjugates against a panel of cell lines, and based on previous data from Xenograft studies. […] The test articles were solubilized in dimethylsulfoxide and were tested at four different molar (M) concentrations; 10^−4, 10^−5, 10^−6, M. GI50 (the concentration needed to reduce the growth of treated cells to half that of untreated control cells) was calculated for each condition ([(Ti−Tz)/(C-Tz)]×100=50, where Ti, Tz, and C refer to absorbance values obtained from each tested concentration, time zero, and control treatment, respectively).
as §1, with “The objective” for “The aim”, “the IC50” for “the GI50”, “for PEG-gemcitabine” for “for PEG-floxuridine”, “in dimethyl sulfoxide” for “in dimethylsulfoxide”, “10^−6, 10^−7” for “10^−6,”, “condition ([(Ti−Tz)/(C−Tz)]×100=50,” for “condition ([(Ti−Tz)/(C-Tz)]×100=50,”

[7] = system: Caco-2 cells
Text: as §5

[8] = system: CAKI-1; assay: In vitro cytotoxicity assay (CellTiter-Glo); type: cell-based; conditions: Homo sapiens, 72 h exposure, CellTiter-Glo
[9] = system: HCT15; assay: Sulforhodamine B (SRB) growth inhibition assay; type: cell-based, Human; conditions: Homo sapiens, HCT-15, SRB assay
Experimental: (§2) In Vitro Screening of PEG-Gemcitabine Monophosphate in Selected Human Cancer Cell Lines
as §1
as §1, with “The objective” for “The aim”, “the IC50” for “the GI50”, “for PEG-gemcitabine” for “for PEG-floxuridine”, “in dimethyl sulfoxide” for “in dimethylsulfoxide”, “10^−6, 10^−7” for “10^−6,”, “condition ([(Ti−Tz)/(C−Tz)]×100=50,” for “condition ([(Ti−Tz)/(C-Tz)]×100=50,”

[10] = system: MCF7; assay: Sulforhodamine B (SRB) growth inhibition assay; type: cell-based, Human; conditions: Homo sapiens
Experimental: as §2, §1
as §1, with “The objective” for “The aim”, “the IC50” for “the GI50”, “for PEG-gemcitabine” for “for PEG-floxuridine”, “in dimethyl sulfoxide” for “in dimethylsulfoxide”, “10^−6, 10^−7” for “10^−6,”, “condition ([(Ti−Tz)/(C−Tz)]×100=50,” for “condition ([(Ti−Tz)/(C-Tz)]×100=50,”

[11] = system: Hop62; assay: Sulforhodamine B (SRB) growth inhibition assay; type: cell-based, Human; conditions: Homo sapiens, HOP-62, SRB assay
Experimental: as §2, §1
as §1, with “The objective” for “The aim”, “the IC50” for “the GI50”, “for PEG-gemcitabine” for “for PEG-floxuridine”, “in dimethyl sulfoxide” for “in dimethylsulfoxide”, “10^−6, 10^−7” for “10^−6,”, “condition ([(Ti−Tz)/(C−Tz)]×100=50,” for “condition ([(Ti−Tz)/(C-Tz)]×100=50,”

[12] = system: HT29; assay: Sulforhodamine B (SRB) growth inhibition assay; type: cell-based, Human; conditions: Homo sapiens, HT-29, SRB assay
Experimental: as §2, §1
as §1, with “The objective” for “The aim”, “the IC50” for “the GI50”, “for PEG-gemcitabine” for “for PEG-floxuridine”, “in dimethyl sulfoxide” for “in dimethylsulfoxide”, “10^−6, 10^−7” for “10^−6,”, “condition ([(Ti−Tz)/(C−Tz)]×100=50,” for “condition ([(Ti−Tz)/(C-Tz)]×100=50,”

[13] = system: COLO205; assay: Sulforhodamine B (SRB) growth inhibition assay; type: cell-based, Human; conditions: Homo sapiens, COLO 205, COLO205, SRB assay
Experimental: as §2, §1
as §1, with “The objective” for “The aim”, “the IC50” for “the GI50”, “for PEG-gemcitabine” for “for PEG-floxuridine”, “in dimethyl sulfoxide” for “in dimethylsulfoxide”, “10^−6, 10^−7” for “10^−6,”, “condition ([(Ti−Tz)/(C−Tz)]×100=50,” for “condition ([(Ti−Tz)/(C-Tz)]×100=50,”

[14] = system: A2780; assay: Sulforhodamine B (SRB) growth inhibition assay; type: cell-based, Human; conditions: Homo sapiens, SRB assay
Experimental: as §2, §1
as §1, with “The objective” for “The aim”, “the IC50” for “the GI50”, “for PEG-gemcitabine” for “for PEG-floxuridine”, “in dimethyl sulfoxide” for “in dimethylsulfoxide”, “10^−6, 10^−7” for “10^−6,”, “condition ([(Ti−Tz)/(C−Tz)]×100=50,” for “condition ([(Ti−Tz)/(C-Tz)]×100=50,”

[15] = system: NCI-H460; assay: In vitro cytotoxicity assay (CellTiter-Glo); type: cell-based; conditions: Homo sapiens, 72 h exposure, CellTiter-Glo
Experimental: (§3) The objective of these studies was to determine the IC50 values for PEG-gemcitabine conjugates against gemcitabine-resistant cell lines based on data from previous Xenograft studies. The cells were exposed for 72 h, and cell viability assessed by using the CellTiter-Glo assay.

[16] = system: NCI-H23; assay: In vitro cytotoxicity assay (CellTiter-Glo); type: cell-based; conditions: Homo sapiens, 72 h exposure, CellTiter-Glo
Experimental: as §3

[17] = system: NCI-H522; assay: In vitro cytotoxicity assay (CellTiter-Glo); type: cell-based; conditions: Homo sapiens, 72 h exposure, CellTiter-Glo
Experimental: as §3

[18] = system: K-562; assay: In vitro cytotoxicity assay (CellTiter-Glo); type: cell-based; conditions: Homo sapiens, K562, 72 h exposure, CellTiter-Glo
Experimental: as §3

[19] = system: RL; assay: In vitro cytotoxicity assay (CellTiter-Glo); type: cell-based; conditions: Homo sapiens, 72 h exposure, CellTiter-Glo
Experimental: as §3

[20] = system: CCRF-CEM; assay: In vitro cytotoxicity assay (CellTiter-Glo); type: cell-based; conditions: Homo sapiens, 72 h exposure, CellTiter-Glo
Experimental: as §3

[21] = system: SW-620; assay: In vitro cytotoxicity assay (CellTiter-Glo); type: cell-based; conditions: Homo sapiens, 72 h exposure, CellTiter-Glo
Experimental: as §3

[22] = system: DLD-1; assay: In vitro cytotoxicity assay (CellTiter-Glo); type: cell-based; conditions: Homo sapiens, 72 h exposure, CellTiter-Glo
Experimental: as §3

[23] = system: HL-60; assay: In vitro cytotoxicity assay (CellTiter-Glo); type: cell-based; conditions: Homo sapiens, 72 h exposure, CellTiter-Glo
Experimental: as §3

[24] = system: AS283; assay: In vitro cytotoxicity assay (CellTiter-Glo); type: cell-based; conditions: 72 h exposure, CellTiter-Glo
Experimental: as §3

[25] = system: HT-29; assay: In vitro cytotoxicity assay (CellTiter-Glo); type: cell-based; conditions: Homo sapiens, 72 h exposure, CellTiter-Glo
Experimental: (§4) The objective of these studies were to determine the IC50 values for PEG-floxuridine conjugates against floxuridine-resistant cell lines based on data from previous Xenograft studies. The cells were exposed for 72 h, and cell viability assessed by using the CellTiter-Glo assay.
as §3

[26] = system: MIA PaCa-2; assay: In vitro cytotoxicity assay (CellTiter-Glo); type: cell-based; conditions: Homo sapiens, 72 h exposure, CellTiter-Glo
Experimental: as §4, §3

[27] = system: HCT-116; assay: In vitro cytotoxicity assay (CellTiter-Glo); type: cell-based; conditions: Homo sapiens, 72 h exposure, CellTiter-Glo
Experimental: as §4, §3

[28] = system: PANC-1; assay: In vitro cytotoxicity assay (CellTiter-Glo); type: cell-based; conditions: Homo sapiens, 72 h exposure
Experimental: as §3
The PEG-gemcitabine derivatives and gemcitabine inhibited the growth of most of the cell lines with IC50 values from the nM to low μM range, except for PANC-1 cells. Like the previous study, some of the IC50 values should be interpreted carefully because the concentration range tested was not centered around the IC50. […] The PANC-1 pancreatic cell line, in contrast to BxPC-3, Capan-1, or MIA-PaCa-2, has been shown previously to be resistant in vitro to gemcitabine, and 4′-thio-FAC, a deoxycytidine sulfur- and fluoro-substituted analog (Zajchowski et al., (2005). Int J Cancer. 114(6), 1002-9).

[29] = in vitro; conditions: human
Experimental: Cells were inoculated into 24-well microtiter plates in 100 μL at 5×10^3 cells/well, in duplicate. After 24 h, test articles were added to the cells for 24 or 48 h, after which time the supernatant from each of the wells was collected and stored below −15° C. until LC/MS analysis.

[30] = system: MDCK cells
Text: as §5

Papp A→B [1]: 0.3 ×10⁻⁶ cm/s
Papp B→A [1]: 0.42 ×10⁻⁶ cm/s
efflux ratio [1]: 1.4
recovery ([1]; Caco-2, percent recovery A -> B): 90%
recovery ([1]; Caco-2, percent recovery B -> A): 89%
permeability across Caco-2 monolayers (in words) [2]: poor permeability
Papp A→B [4]: 0.17 ×10⁻⁶ cm/s
Papp B→A [4]: 0.12 ×10⁻⁶ cm/s
efflux ratio [4]: 0.7
recovery ([4]; percent recovery A -> B): 96%
recovery ([4]; percent recovery B -> A): 95%
permeability through MDCK monolayers (in words) [5]: poor permeability
GI50 [6]: < 0.1 µM
Significant efflux [7]: No
GI50 ([9]; 48 h drug exposure, read-out: GI50 (molar concentration) in Cell Line HCT15): 0.16 µM
GI50 ([9]; cells exposed for 24 h, read-out: GI50 values (μM) HCT15): 0.16 µM
GI50 ([10]; MCF-7 cell line, read-out: GI50 (MCF-7 moderately sensitive)): ~0.1 µM
GI50 ([10]; SRB assay, 48 h drug exposure, read-out: GI50 (molar concentration) in Cell Line MCF7): < 0.1 µM
GI50 ([10]; SRB assay, cells exposed for 24 h, read-out: GI50 values (μM) MCF7): < 0.1 µM
GI50 ([12]; 48 h drug exposure, read-out: GI50 (molar concentration) in Cell Line HT29): 2.1 µM
GI50 ([12]; cells exposed for 24 h, read-out: GI50 values (μM) HT29): 2.1 µM
GI50 ([13]; 48 h drug exposure, read-out: GI50 (molar concentration) in Cell Line COLO205): 0.14 µM
GI50 ([13]; cells exposed for 24 h, read-out: GI50 values (μM) COLO205): 0.14 µM
GI50 ([14]; 48 h drug exposure, read-out: GI50 (molar concentration) in Cell Line A2780): < 0.1 µM
GI50 ([14]; cells exposed for 24 h, read-out: GI50 values (μM) A2780): < 0.1 µM
recovery [29]: 100 to 110%
Significant efflux [30]: No
SMILES: Nc1ccn([C@@H]2O[C@H](CO)[C@@H](O)C2(F)F)c(=O)n1 [Gemcitabine, reference compound]
resistance of PANC-1 in vitro (shown previously) [3]: resistant
IC50 [8]: 8.3 nM
GI50 ([11]; 48 h drug exposure, read-out: GI50 (molar concentration) in Cell Line Hop62): 1.8 µM
GI50 ([11]; cells exposed for 24 h, read-out: GI50 values (μM) Hop62): 1.8 µM
IC50 [15]: 14 nM
IC50 [16]: 6.9 nM
IC50 [17]: 4.4 nM
IC50 [18]: 697 nM
IC50 [19]: 281 nM
IC50 [20]: 7 nM
IC50 [21]: 49 nM
IC50 [22]: 22 nM
IC50 [23]: 1.7 nM
IC50 [24]: 124 nM
IC50 [25]: 111 nM
IC50 [26]: 26 nM
IC50 [27]: 1.9 nM
IC50 [28]: > 1e+06 nM
